# Measured values from patent US12252524B2, “GIP/GLP1 co-agonist compounds” (Eli Lilly and Company, priority 2018, dated 2025).
# Numbered stars: 1 amine (or outer) side, 2 acyl side, 3 side chain; on linkers, the order of the positions; unused ones are H or OH. Square brackets hold non-standard residues; d marks the D form. Side chains are listed from the residue outwards. Peptide text beside a SMILES is read from it. * marks the point of attachment. C20 diacid = O=C(O)CCCCCCCCCCCCCCCCCCC(=O)*; C18 diacid = O=C(O)CCCCCCCCCCCCCCCCC(=O)*; γGlu = O=C(O)[C@H](CCC(=O)[*:2])N[*:1]; αMeL = CC(C)C[C@](C)(N)C(=O)O; AEEA = NCCOCCOCC(=O)O; Aib = CC(C)(N)C(=O)O
# What was measured:
# human Gcg receptor = target: T1, human Gcg receptor (Homo sapiens, UniProt P47871); assay: [125I]-Glucagon binding (SPA), human Gcg receptor; settings: read-out: hGLcgR Ki, nM (SEM, n)
# T1 construct: expressed in transfected cells; crude membranes
# T1 sequence (P47871 26-477): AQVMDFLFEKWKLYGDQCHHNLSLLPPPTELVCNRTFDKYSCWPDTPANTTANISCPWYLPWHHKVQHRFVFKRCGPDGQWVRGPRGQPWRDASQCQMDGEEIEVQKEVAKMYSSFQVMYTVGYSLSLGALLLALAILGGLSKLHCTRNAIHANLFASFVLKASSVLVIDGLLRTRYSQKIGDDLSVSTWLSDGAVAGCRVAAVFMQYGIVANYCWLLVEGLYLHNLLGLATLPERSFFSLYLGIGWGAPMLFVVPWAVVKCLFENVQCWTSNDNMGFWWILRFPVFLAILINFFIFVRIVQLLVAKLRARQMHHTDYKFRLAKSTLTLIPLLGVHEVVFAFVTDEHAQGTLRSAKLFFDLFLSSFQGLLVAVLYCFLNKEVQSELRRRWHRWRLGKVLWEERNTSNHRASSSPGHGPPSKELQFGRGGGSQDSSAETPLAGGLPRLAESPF
# Method in brief: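 Scintillation counts are taken after membranes and WGA beads incubate and settle for 12 hours at room temperature. Buffer is 25 mM HEPES, pH 7.4, with CaCl2, MgCl2, bacitracin and Tween-20. Ki values, from four-parameter IC50 fits, are geometric means over independent days.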
# human GLP-1R [1] = target: T2, human GLP-1R (Homo sapiens, UniProt P43220); assay: [125I]-GLP-1 binding (SPA), human GLP-1 receptor; design: expressed in transfected cells; crude membranes; settings: read-out: hGLP1R Ki, (nM) (SEM, n)
# T2 sequence (P43220 24-463): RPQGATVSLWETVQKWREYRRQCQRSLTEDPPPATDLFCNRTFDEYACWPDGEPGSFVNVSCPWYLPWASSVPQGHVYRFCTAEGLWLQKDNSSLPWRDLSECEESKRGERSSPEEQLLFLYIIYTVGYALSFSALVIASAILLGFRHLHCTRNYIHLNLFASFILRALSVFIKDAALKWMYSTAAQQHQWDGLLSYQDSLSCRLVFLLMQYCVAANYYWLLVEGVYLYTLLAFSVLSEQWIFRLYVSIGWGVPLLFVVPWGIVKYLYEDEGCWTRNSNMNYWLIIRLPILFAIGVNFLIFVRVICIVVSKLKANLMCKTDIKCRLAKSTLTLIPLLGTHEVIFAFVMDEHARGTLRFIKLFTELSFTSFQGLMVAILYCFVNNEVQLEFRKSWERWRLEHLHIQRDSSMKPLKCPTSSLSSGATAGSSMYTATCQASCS
# Method in brief: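 Crude-membrane binding assay; one membrane prep included 1 mM MgCl2 and 25 units/ml DNAse I during lysis. Assay buffer at pH 7.4 contains 0.1% (w/v) bacitracin and 0.003% (w/v) TWEEN-20. Ki is reported as geometric mean.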
# human GIP receptor = target: T3, human GIP receptor (Homo sapiens, UniProt P48546); assay: [125I]-GIP binding (SPA), human GIP receptor; settings: read-out: hGIPR Ki, nM (SEM, n)
# T3 construct: expressed in transfected cells; crude membranes
# T3 sequence (P48546 22-466): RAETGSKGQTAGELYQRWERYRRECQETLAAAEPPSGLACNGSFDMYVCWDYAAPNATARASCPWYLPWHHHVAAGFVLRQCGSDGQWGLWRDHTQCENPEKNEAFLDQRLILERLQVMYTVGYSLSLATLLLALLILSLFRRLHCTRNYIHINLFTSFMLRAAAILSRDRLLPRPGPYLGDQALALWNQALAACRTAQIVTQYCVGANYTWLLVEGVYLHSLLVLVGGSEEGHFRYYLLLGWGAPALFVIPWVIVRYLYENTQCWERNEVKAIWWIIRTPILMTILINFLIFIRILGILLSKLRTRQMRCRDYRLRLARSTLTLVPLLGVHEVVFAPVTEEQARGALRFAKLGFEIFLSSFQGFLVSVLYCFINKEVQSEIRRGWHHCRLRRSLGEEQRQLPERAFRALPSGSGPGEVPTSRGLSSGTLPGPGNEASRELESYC
# human GLP-1R [2] = target: T2, human GLP-1R; assay: GLP-1R HEK293 cell membrane [35S]GTPγS binding assay; assay type: biochemical; design: expressed in transfected cells; host or cells: HEK293 cells expressing human GLP-1R; membranes; settings: HEK293 cell membranes expressing human GLP-1R, [35S]GTPγS binding; read-out: hGLP1R GTPgS Rel EC50 nM (SEM, n)
# Procedure: The GLP-1 receptor is a G-protein coupled receptor that increases GTP-bound Gas upon ligand induced receptor activation. The potency of peptides to stimulate-GLP-1R induced activation of Gac is determined using preparations of purified membranes from HEK293 cells expressing the human GLP-1R. […] The test peptides are solubilized in DMSO and diluted in reaction buffer containing 5 μg of membrane in 20 mM HEPES pH 7.4, 50 mM NaCl, 5 mM MgCl2, 40 μg/ml saponin, 0.1% BSA, and […] ^35S-labeled GTPTS for 30 minutes at room temperature. Reactions are terminated by addition of 0.2% Nonidet β-40 detergent containing rabbit anti-Gas polyclonal antibody and 0.5 mg of anti-rabbit polyvinyltoluene beads. Mixtures are developed for 30 minutes, centrifuged at 80×g for 10 minutes, and counted for 1 minute/well using a MicroBeta TriLux instrument. Peptide concentration-response curves are fit to a four-parameter logistic model to calculate potency as an EC50.
# [3] = target: human GLP-1 receptor (GLP-1R) (Homo sapiens, UniProt P43220); assay: cAMP pharmacological functional assay in presence of casein, hGLP-1R; assay type: cell-based; settings: HEK293 cells expressing hGLP-1R, 0.1% Casein, geometric mean; read-out: hGLP1R cAMP Rel EC50 nM (SEM, n)
# human GLP-1 receptor (GLP-1R), sequence (P43220 24-463): as the sequence (P43220 24-463) above
# [4] = target: T4, gastric inhibitory peptide receptor (GIPR) (Homo sapiens, UniProt P48546); assay: cAMP pharmacological functional assay in presence of casein, hGIPR; assay type: cell-based; settings: HEK293 cells expressing hGIPR, 0.1% Casein, geometric mean; read-out: hGIPR cAMP Rel EC50 nM (SEM, n)
# T4 sequence (P48546 22-466): T3 sequence (P48546 22-466)
Compound,Ki (human Gcg receptor) [nM],Ki (human GLP-1R [1]) [nM],Ki (human GIP receptor) [nM],EC50 (human GLP-1R [2]) [nM],EC50 [3] [nM],EC50 [4] [nM]
CC[C@H](C)[C@H](NC(=O)[C@H](CC(C)C)NC(=O)[C@H](Cc1ccc(O)cc1)NC(=O)[C@H](CCC(=O)O)NC(=O)[C@@H](NC(=O)[C@H](Cc1ccccc1)NC(=O)[C@H](C)NC(=O)C(C)(C)NC(=O)[C@H](CCC(N)=O)NC(=O)[C@H](C)NC(=O)[C@H](CCCCNC(=O)COCCOCCNC(=O)COCCOCCNC(=O)CC[C@H](NC(=O)CCCCCCCCCCCCCCCCCCC(=O)O)C(=O)O)NC(=O)[C@H](CCCCN)NC(=O)[C@H](CC(=O)O)NC(=O)[C@H](CC(C)C)NC(=O)[C@](C)(CC(C)C)NC(=O)[C@@H](NC(=O)[C@H](CO)NC(=O)[C@H](Cc1ccc(O)cc1)NC(=O)[C@H](CC(=O)O)NC(=O)[C@H](CO)NC(=O)[C@@H](NC(=O)[C@H](Cc1ccccc1)NC(=O)[C@@H](NC(=O)CNC(=O)[C@H](CCC(=O)O)NC(=O)C(C)(C)NC(=O)[C@@H](N)Cc1ccc(O)cc1)[C@@H](C)O)[C@@H](C)O)[C@@H](C)CC)[C@@H](C)CC)C(=O)N[C@@H](C)C(=O)NCC(=O)NCC(=O)N1CCC[C@H]1C(=O)N[C@@H](CO)C(=O)N[C@@H](CO)C(=O)NCC(=O)N[C@@H](C)C(=O)N1CCC[C@H]1C(=O)N1CCC[C@H]1C(=O)N1CCC[C@H]1C(=O)N[C@@H](CO)C(N)=O [Example 324] (H-Y[Aib]EGTFTSDYSI[αMeL]LDKK([AEEA-AEEA-γGlu-C20 diacid])AQ[Aib]AFIEYLIAGGPSSGAPPPS-NH2),449,0.609,0.0278,0.475,0.0926,0.0374
CC[C@H](C)[C@H](NC(=O)[C@H](CC(C)C)NC(=O)[C@H](Cc1ccc(O)cc1)NC(=O)[C@H](CCC(=O)O)NC(=O)[C@@H](NC(=O)[C@H](Cc1ccccc1)NC(=O)[C@H](C)NC(=O)C(C)(C)NC(=O)[C@H](CCC(N)=O)NC(=O)[C@H](C)NC(=O)[C@H](CCCCNC(=O)COCCOCCNC(=O)COCCOCCNC(=O)CC[C@H](NC(=O)CCCCCCCCCCCCCCCCCCC(=O)O)C(=O)O)NC(=O)[C@H](CCCCN)NC(=O)[C@H](CC(=O)O)NC(=O)[C@H](CC(C)C)NC(=O)[C@H](CC(C)C)NC(=O)[C@@H](NC(=O)[C@H](CO)NC(=O)[C@H](Cc1ccc(O)cc1)NC(=O)[C@H](CC(=O)O)NC(=O)[C@H](CO)NC(=O)[C@@H](NC(=O)[C@](C)(Cc1ccccc1F)NC(=O)[C@@H](NC(=O)CNC(=O)[C@H](CCC(=O)O)NC(=O)C(C)(C)NC(=O)[C@@H](N)Cc1ccc(O)cc1)[C@@H](C)O)[C@@H](C)O)[C@@H](C)CC)[C@@H](C)CC)C(=O)N[C@@H](CCC(=O)O)C(=O)NCC(=O)NCC(=O)N1CCC[C@H]1C(=O)N[C@@H](CO)C(=O)N[C@@H](CO)C(=O)NCC(=O)N[C@@H](C)C(=O)N1CCC[C@H]1C(=O)N1CCC[C@H]1C(=O)N1CCC[C@H]1C(=O)N[C@@H](CO)C(N)=O [Example 325],13,0.475,0.0209,0.414,0.0586,0.0301
CC[C@H](C)[C@H](NC(=O)[C@H](CC(C)C)NC(=O)[C@H](Cc1ccc(O)cc1)NC(=O)[C@H](CCC(=O)O)NC(=O)[C@@H](NC(=O)[C@H](Cc1ccccc1)NC(=O)[C@H](C)NC(=O)C(C)(C)NC(=O)[C@H](CCC(N)=O)NC(=O)[C@H](C)NC(=O)[C@H](CCCCNC(=O)COCCOCCNC(=O)COCCOCCNC(=O)CC[C@H](NC(=O)CCCCCCCCCCCCCCCCC(=O)O)C(=O)O)NC(=O)[C@H](CCCCN)NC(=O)[C@H](CC(=O)O)NC(=O)[C@H](CC(C)C)NC(=O)[C@](C)(CC(C)C)NC(=O)[C@@H](NC(=O)[C@H](CO)NC(=O)[C@H](Cc1ccc(O)cc1)NC(=O)[C@H](CC(=O)O)NC(=O)[C@H](CO)NC(=O)[C@@H](NC(=O)[C@H](Cc1ccccc1)NC(=O)[C@@H](NC(=O)CNC(=O)[C@H](CCC(=O)O)NC(=O)C(C)(C)NC(=O)[C@@H](N)Cc1ccccc1)[C@@H](C)O)[C@@H](C)O)[C@@H](C)CC)[C@@H](C)CC)C(=O)N[C@@H](CCC(=O)O)C(=O)N[C@@H](C)C(=O)NCC(=O)N1CCC[C@H]1C(=O)N[C@@H](CO)C(=O)N[C@@H](CO)C(=O)NCC(=O)N[C@@H](C)C(=O)N1CCC[C@H]1C(=O)N1CCC[C@H]1C(=O)N1CCC[C@H]1C(=O)N[C@@H](CO)C(N)=O [Example 328] (H-F[Aib]EGTFTSDYSI[αMeL]LDKK([AEEA-AEEA-γGlu-C18 diacid])AQ[Aib]AFIEYLIEAGPSSGAPPPS-NH2),> 1450,3.98,0.136,0.481,0.117,0.0965
CC[C@H](C)[C@H](NC(=O)[C@H](CC(C)C)NC(=O)[C@H](Cc1ccc(O)cc1)NC(=O)[C@H](CCC(=O)O)NC(=O)[C@@H](NC(=O)[C@H](Cc1ccccc1)NC(=O)[C@H](CCC(=O)O)NC(=O)C(C)(C)NC(=O)[C@H](CCC(N)=O)NC(=O)[C@H](C)NC(=O)[C@H](CCCCNC(=O)COCCOCCNC(=O)COCCOCCNC(=O)CC[C@H](NC(=O)CCCCCCCCCCCCCCCCCCC(=O)O)C(=O)O)NC(=O)[C@H](CCCCN)NC(=O)[C@H](CC(=O)O)NC(=O)[C@H](CC(C)C)NC(=O)[C@H](CC(C)C)NC(=O)[C@@H](NC(=O)[C@H](CO)NC(=O)[C@H](Cc1ccc(O)cc1)NC(=O)[C@H](CC(=O)O)NC(=O)[C@H](CO)NC(=O)[C@@H](NC(=O)[C@H](Cc1ccccc1)NC(=O)[C@@H](NC(=O)CNC(=O)[C@H](CCC(=O)O)NC(=O)C(C)(C)NC(=O)[C@@H](N)Cc1ccc(O)cc1)[C@@H](C)O)[C@@H](C)O)[C@@H](C)CC)[C@@H](C)CC)C(=O)N[C@@H](C)C(=O)NCC(=O)NCC(=O)N1CCC[C@H]1C(=O)N[C@@H](CO)C(=O)N[C@@H](CO)C(=O)NCC(N)=O [Example 318] (H-Y[Aib]EGTFTSDYSILLDKK([AEEA-AEEA-γGlu-C20 diacid])AQ[Aib]EFIEYLIAGGPSSG-NH2; N-terminus assumed),730,7.52,0.0452,0.415,0.124,0.0547
CC[C@H](C)[C@H](NC(=O)[C@H](CC(C)C)NC(=O)[C@H](Cc1ccc(O)cc1)NC(=O)[C@H](CCC(=O)O)NC(=O)[C@@H](NC(=O)[C@H](Cc1ccccc1)NC(=O)[C@H](CCC(=O)O)NC(=O)C(C)(C)NC(=O)[C@H](CCC(N)=O)NC(=O)[C@H](C)NC(=O)[C@H](CCCCNC(=O)COCCOCCNC(=O)COCCOCCNC(=O)CC[C@H](NC(=O)CCCCCCCCCCCCCCCCC(=O)O)C(=O)O)NC(=O)[C@H](CCCCN)NC(=O)[C@H](CC(=O)O)NC(=O)[C@H](CC(C)C)NC(=O)[C@](C)(CC(C)C)NC(=O)[C@@H](NC(=O)[C@H](CO)NC(=O)[C@H](Cc1ccc(O)cc1)NC(=O)[C@H](CC(=O)O)NC(=O)[C@H](CO)NC(=O)[C@@H](NC(=O)[C@H](Cc1ccccc1)NC(=O)[C@@H](NC(=O)CNC(=O)[C@H](CCC(=O)O)NC(=O)C(C)(C)NC(=O)[C@@H](N)Cc1ccc(O)cc1)[C@@H](C)O)[C@@H](C)O)[C@@H](C)CC)[C@@H](C)CC)C(=O)N[C@@H](C)C(=O)NCC(=O)NCC(=O)N1CCC[C@H]1C(=O)N[C@@H](CO)C(=O)N[C@@H](CO)C(=O)NCC(N)=O [Example 306] (H-Y[Aib]EGTFTSDYSI[αMeL]LDKK([AEEA-AEEA-γGlu-C18 diacid])AQ[Aib]EFIEYLIAGGPSSG-NH2),> 1040,2.86,0.0349,0.378,0.0711,0.0191
